“And” between values parts separate entries of the source, which are not always exact repeats. Equal values may be shown once.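 Each compound was tested at five concentrations against cells in 96-well plates for 48 hours. GI50 marks 50% less growth. TGI marks complete inhibition of growth.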
Columns and labels:
Assay in all cases: NCI anticancer screen, dose series, 48 h
HL-60(TB) leukemia = test system: HL-60(TB) leukemia
T-47D breast = test system: T-47D breast
786-0 renal = test system: 786-0 renal
MDA-MB-435 = test system: MDA-MB-435
SK-MEL-2 melanoma = test system: SK-MEL-2 melanoma
SNB-75 CNS = test system: SNB-75 CNS
HCC-2998 colon = test system: HCC-2998 colon
COLO 205 colon = test system: COLO 205 colon
IGROV1 ovarian = test system: IGROV1 ovarian
OVCAR-4 ovarian = test system: OVCAR-4 ovarian

SMILES | TGI (HL-60(TB) leukemia) | TGI (T-47D breast) | TGI (786-0 renal) | TGI (MDA-MB-435) | TGI (SK-MEL-2 melanoma) | TGI (SNB-75 CNS) | TGI (HCC-2998 colon) | TGI (COLO 205 colon) | TGI (IGROV1 ovarian) | TGI (OVCAR-4 ovarian) | GI50 (HL-60(TB) leukemia) | GI50 (T-47D breast) [µM] | GI50 (786-0 renal) [µM] | GI50 (MDA-MB-435) [µM] | GI50 (SNB-75 CNS) | GI50 (HCC-2998 colon) | GI50 (COLO 205 colon) [µM] | GI50 (IGROV1 ovarian) | GI50 (OVCAR-4 ovarian) | GI50 (SK-MEL-2 melanoma)
COc1ccc2nc3cc(Cl)ccc3c(Nc3ccccc3-c3ccccc3Nc3c4ccc(Cl)cc4nc4ccc(OC)cc34)c2c1 | 16.8 µM | 75.4 µM | > 59 µM | > 100 µM | > 73.7 µM | > 72 µM | > 67.5 µM | > 88 µM | > 71.1 µM | 81.6 µM | – | – | – | – | – | – | – | – | – | –
O=C(O)CCC(O)=C1S(=O)(=O)OCCOS1(=O)=O | > 100 µM | > 100 µM | > 100 µM | > 100 µM | > 100 µM | > 100 µM | > 100 µM | > 100 µM | > 100 µM | > 100 µM | – | – | – | – | – | – | – | – | – | –
OCc1c(-c2cccs2)oc(-c2cccs2)c1CO | 70 µM | > 100 µM | > 100 µM | > 100 µM | – | > 100 µM | 45.6 µM | > 100 µM | > 100 µM | > 100 µM | 21.1 µM | 17.3 | > 100 | 46.9 | 69.4 µM | 21.1 µM | 35.9 | 58.3 µM | > 100 µM | –
CCN1C(=O)N(CC)C2C1NN=c1s/c(=C3\C(=O)Nc4ccccc43)c(=O)n12 (configuration not stated) | 0.91 µM | > 100 µM | 24.6 µM | 0.357 µM | 30 µM | 0.429 µM | 31.7 µM | > 57.5 µM | 24.6 µM | > 100 µM | 0.296 µM | 0.42 | 0.588 | 0.147 | < 0.0447 µM | 1.47 µM | 0.445 | 0.616 µM | > 59.1 µM | 1.34 µM
CCC/C=C/C=C/C(=O)OC1/C(=C/C(=O)OC)CC2CC(C(C)O)OC(=O)CC(O)CC3CC(OC(C)=O)C(C)(C)C(O)(CC4C/C(=C/C(=O)OC)CC(/C=C/C(C)(C)C1(O)O2)O4)O3 (configuration not stated) | 10.9 µM and 5.43 µM and > 12.5 µM | 11 µM and > 12.5 µM | 11 µM and > 12.5 µM | 11 µM and > 12.5 µM | > 10.9 µM and 11 µM and > 12.5 µM | 10.9 µM and 9.84 µM and > 12.5 µM | > 10.9 µM and 9 µM and > 12.5 µM | 6.88 µM and 11 µM and > 12.5 µM | > 10.9 µM and 6.06 µM and > 12.5 µM | > 6.88 µM and 10.1 µM and > 12.5 µM | 4.61 µM and 1.81 µM and > 12.5 µM | > 12.5 | > 12.5 | > 12.5 | 10.3 µM and 2.85 µM and > 12.5 µM | > 10.9 µM and 4.72 µM and > 12.5 µM | – | > 10.9 µM and 5.09 µM and > 12.5 µM | > 6.88 µM and 3.48 µM and > 12.5 µM | > 10.9 µM and 5.77 µM and > 12.5 µM
Cc1cc(NC(=O)NCCOc2ccc(N3C(N)=NC(N)=NC3(C)C)cc2Cl)ccc1S(=O)(=O)F | 36.8 µM | 74.9 µM | > 100 µM | > 100 µM | 27.1 µM | 48.3 µM | > 100 µM | 30.4 µM | > 100 µM | > 77.5 µM | 1.8 µM | 5.13 | 5.02 | 0.626 | 1.53 µM | 2.96 µM | 1.4 | 0.545 µM | 2.75 µM | 5.29 µM
Cc1cccc(CNc2c3ccccc3nc3ccccc23)c1 | 5.28 µM | 4.61 µM | 4.09 µM | 3.22 µM | 4.14 µM | 8.32 µM | 3.4 µM | 3.89 µM | 6.79 µM | 5.59 µM | 2.26 µM | 1.83 | 1.89 | 1.66 | 1.08 µM | 1.55 µM | 1.69 | 2.17 µM | 1.74 µM | 1.94 µM
O=C1c2ccccc2C(=O)c2c1ccc1conc21 | 4.16 µM | 2.02 µM | 5.79 µM | 1.37 µM | 7.14 µM | 20.5 µM | 29.8 µM | 12.3 µM | 5.88 µM | 2.02 µM | – | – | – | – | – | – | – | – | – | –
CN(C)Cc1ccc(NC(=O)c2cncc(C#Cc3cnc(N)c4ncccc34)c2)cc1C(F)(F)F | 2.51 µM | 65.3 µM | 3.26 µM | 1.88 µM | 27 µM | 3.09 µM | 3.16 µM | 14 µM | 2.97 µM | 2.56 µM | 0.937 µM | 15.8 | 1.77 | 0.376 | 1.69 µM | 1.62 µM | 0.293 | 1.47 µM | 1.16 µM | 1.56 µM
O=C1OC(c2ccc([N+](=O)[O-])cc2)=N/C1=C\c1ccc(Cl)cc1 | > 100 µM | > 100 µM | > 100 µM | > 100 µM | > 100 µM | > 100 µM | > 100 µM | > 100 µM | > 100 µM | > 100 µM | – | – | – | – | – | – | – | – | – | –
COc1ccc(C2=C(c3ccc(OC)cc3)C(=O)OC2)cc1 | 4.58 µM | > 65.6 µM | 10.9 µM | 0.4 µM | > 48.6 µM | > 100 µM | 14.5 µM | > 100 µM | > 100 µM | > 100 µM | 0.525 µM | 8.89 | 2.11 | 0.0752 | 3.16 µM | 0.264 µM | 1.38 | 5.03 µM | 16 µM | 1.48 µM
COc1ccc(-n2cc(-c3cc(OC)c(OC)c(OC)c3)nc2SCc2cccc(C#N)c2)cc1OC | > 100 µM | > 100 µM | > 100 µM | > 100 µM | > 100 µM | > 100 µM | > 100 µM | > 100 µM | > 100 µM | 39.6 µM | > 100 µM | > 100 | > 100 | 90.5 | 0.924 µM | > 100 µM | > 100 | > 100 µM | 2.12 µM | > 100 µM
CC(=O)c1cc2c(Br)cccc2oc1=O | > 100 µM | > 100 µM | > 100 µM | > 100 µM | > 100 µM | > 100 µM | > 100 µM | > 100 µM | > 100 µM | > 100 µM | – | – | – | – | – | – | – | – | – | –
COc1ccc(-c2nc(NC(=O)CS(=O)(=O)c3ccc(F)cc3)sc2C)cc1 | 66 µM | 80.6 µM | 61.3 µM | 12.1 µM | 34.1 µM | 60.9 µM | 94.7 µM | 30.6 µM | > 100 µM | > 100 µM | 16.5 µM | 21.7 | 23 | 3.29 | 9.45 µM | 26 µM | 15.3 | 28.2 µM | 31 µM | 15.2 µM

— PubChem BioAssay (NCI)
